# Experimental data: patent US12508300B2, “Acylated GLP-1 derivative” (Sciwind Biosciences Co., Ltd., priority 2019, dated 2025)
# Where two headings read alike, the source gives them in different places. *1 amine or outer side, *2 acyl side, *3 side chain or, on linkers, in order; H or OH if unused. Where a SMILES comes first, the peptide text is derived from it. Where no end group is shown, it is not given here. Side-chain parts run from the residue outwards. The star is where a group is joined. C18 diacid = O=C(O)CCCCCCCCCCCCCCCCC(=O)*; γGlu = O=C(O)[C@H](CCC(=O)[*:2])N[*:1]; AEEA = NCCOCCOCC(=O)O
# Legend:
# Format in all cases: in vivo
# CD-1 mice = test system: CD-1 mice
# Experimental: Twenty-eight healthy female CD-1 mice aged 4-6 weeks are selected and divided into 4 groups, and they are injected subcutaneously with M4, M5, M7 and M0 at a dose of 0.15 mg/kg body weight.
# ICR mice = test system: ICR mice; design: G-AUC: unit not given here
# Experimental: 20% glucose is intragastrically administered every day according to the time schedule of 4 h, 1 d, 2 d, 3 d, 4 d, and 5 d, at a dose of 2 g/kg body weight, and fasting for 6 hours before administering the glucose; and blood is respectively collected from the tip of the tail at 0 h, 0.5 h, 1 h and 2 h after giving the 20% glucose, then measuring the blood glucose value in real time by using Roche blood glucose test paper.
# db/db mice = test: Glucose-lowing effect of different doses in type II diabetic db/db mice (fasting, random blood glucose, OGTT G-AUC); conditions: for Average changes of the blood glucose area under the curve after administration: OGTT
# Experimental: The administration time is set as 0 h, and the fasting blood glucose and OGTT (oral glucose tolerance assay) are determined after fasting for 7-8 h every day, then 10% glucose is intragastrically administered at 1 g/kg body weight, and then blood is collected from the tip of the tail to measure the blood glucose in real time at 0, 0.5, 1, and 2 h after glucose load. After administration, the blood glucose is measured every day before fasting as random blood glucose, until the fasting blood glucose value of each animal of the test group recovers to the value before administration. All of the basal blood glucose value, random blood glucose value, and the blood glucose area under the curve (G-AUC) value determined before administration are bases for evaluating the efficacy of the medicament, and they are set as 0.
# Change of the blood glucose (Δ: delta)=Blood glucose value after administration-Basal blood glucose value before administration.
# Change of the blood glucose area under the curve (Δ: delta)=blood glucose area under the curve after administration-blood glucose area under the curve before administration.
compound,measurement,setting,value
"CC[C@H](C)[C@H](NC(=O)[C@H](Cc1ccccc1)NC(=O)[C@H](CCC(=O)O)NC(=O)[C@H](CCCNC(=N)N)NC(=O)[C@H](C)NC(=O)[C@H](C)NC(=O)[C@H](CCCCNC(=O)COCCOCCNC(=O)COCCOCCNC(=O)CC[C@H](NC(=O)CCCCCCCCCCCCCCCCC(=O)O)C(=O)O)NC(=O)[C@H](CCC(=O)O)NC(=O)[C@H](CCC(=O)O)NC(=O)[C@H](CC(C)C)NC(=O)[C@H](Cc1ccc(O)cc1)NC(=O)[C@H](CO)NC(=O)[C@H](CO)NC(=O)[C@@H](NC(=O)[C@H](CC(=O)O)NC(=O)[C@H](CO)NC(=O)[C@@H](NC(=O)[C@H](Cc1ccccc1)NC(=O)[C@@H](NC(=O)CNC(=O)[C@H](CCC(=O)O)NC(=O)[C@@H](NC(=O)[C@@H](N)Cc1c[nH]cn1)C(C)C)[C@@H](C)O)[C@@H](C)O)C(C)C)C(=O)N[C@@H](C)C(=O)N[C@@H](Cc1c[nH]c2ccccc12)C(=O)N[C@@H](CC(C)C)C(=O)N[C@H](C(=O)N[C@@H](CCCNC(=N)N)C(=O)NCC(=O)N[C@@H](CCCNC(=N)N)C(=O)NCC(=O)O)C(C)C [M2, N-ε^23-[2-(2-[2-(2-[2-(2-[4-(17-carboxyheptadecanoylamino)-4(s)-carboxybutyrylamino]ethoxy)ethoxy]acetylamino)ethoxy]ethoxy)acetyl](Val^8Glu^22Lys^23Arg^26,34-GLP-1 (7-37)) peptide] (H-HVEGTFTSDVSSYLEEK([AEEA-AEEA-γGlu-C18 diacid])AAREFIAWLVRGRG-OH; N-terminus and C-terminus assumed)",Inhibition rate (blood glucose),"CD-1 mice; mouse, in vivo, sc, 0.15 mg/kg, 6 h",34.29%
same,Inhibition rate (blood glucose),"CD-1 mice; mouse, in vivo, sc, 0.15 mg/kg, 30 h",29.51%
same,Inhibition rate (blood glucose),"CD-1 mice; mouse, in vivo, sc, 0.15 mg/kg, 54 h",27.23%
same,Inhibition rate (blood glucose),"CD-1 mice; mouse, in vivo, sc, 0.15 mg/kg, 78 h",21.97%
same,Inhibition rate (blood glucose),"CD-1 mice; mouse, in vivo, sc, 0.15 mg/kg, 102 h",10.15%
"N-ε^26-[2-(2-[2-(2-[2-(2[4-(17-carboxyheptadecanoylamino)-4(s)-carboxybutyrylamino]ethoxy)ethoxy]acetylamino)ethoxy]ethoxy)acetyl]Val^8Glu^22Lys^26Arg^34-GLP-1(7-37) peptide (HVEGTFTSDVSSYLEEQAAK([AEEA-AEEA-γGlu-C18 diacid])EFIAWLVRGRG) [M0, Lys at position 26, disclosed in CN107033234A]",duration of glucose-lowing effect in normal mice,"CD-1 mice; 0.15 mg/kg s.c., from Table 4",about 3 days
same,Inhibition rate (blood glucose),"CD-1 mice; Table 4, CD-1 mice, 0.15 mg/kg s.c., 6 h",38.47%
same,Inhibition rate (blood glucose),"CD-1 mice; Table 4, CD-1 mice, 0.15 mg/kg s.c., 30 h",33.79%
same,Inhibition rate (blood glucose),"CD-1 mice; Table 4, CD-1 mice, 0.15 mg/kg s.c., 54 h",25.18%
same,Inhibition rate (blood glucose),"CD-1 mice; Table 4, CD-1 mice, 0.15 mg/kg s.c., 78 h",13.43%
same,Inhibition rate (blood glucose),"CD-1 mice; Table 4, CD-1 mice, 0.15 mg/kg s.c., 102 h",−1.05%
same,Inhibition rate (blood glucose),"CD-1 mice; Table 5 (second experiment), CD-1 mice, 0.15 mg/kg s.c., 6 h",26.71%
same,Inhibition rate (blood glucose),"CD-1 mice; Table 5 (second experiment), CD-1 mice, 0.15 mg/kg s.c., 30 h",33.57%
same,Inhibition rate (blood glucose),"CD-1 mice; Table 5 (second experiment), CD-1 mice, 0.15 mg/kg s.c., 54 h",17.32%
same,Inhibition rate (blood glucose),"CD-1 mice; Table 5 (second experiment), CD-1 mice, 0.15 mg/kg s.c., 78 h",8.97%
same,Inhibition rate (blood glucose),"CD-1 mice; Table 5 (second experiment), CD-1 mice, 0.15 mg/kg s.c., 102 h",−12.89%
same,G-AUC,ICR mice; 0 h (before administration),18.0 ± 1.9
same,time the glucose-lowing effect is maintained,ICR mice; 0.15 mg/kg s.c. single,3 days
same,G-AUC,"ICR mice; 0.15 mg/kg s.c. single, 4 h",11.1 ± 1.2
same,Inhibition rate (blood glucose),"ICR mice; 0.15 mg/kg s.c. single, 4 h",38.47%
same,G-AUC,"ICR mice; 0.15 mg/kg s.c. single, 1 d",11.9 ± 0.7
same,Inhibition rate (blood glucose),"ICR mice; 0.15 mg/kg s.c. single, 1 d",33.79%
same,G-AUC,"ICR mice; 0.15 mg/kg s.c. single, 2 d",13.5 ± 1.1
same,Inhibition rate (blood glucose),"ICR mice; 0.15 mg/kg s.c. single, 2 d",25.18%
same,G-AUC,"ICR mice; 0.15 mg/kg s.c. single, 3 d",15.6 ± 1.3
same,Inhibition rate (blood glucose),"ICR mice; 0.15 mg/kg s.c. single, 3 d",13.43%
same,G-AUC,"ICR mice; 0.15 mg/kg s.c. single, 4 d",18.2 ± 1.1
same,Inhibition rate (blood glucose),"ICR mice; 0.15 mg/kg s.c. single, 4 d",0.60%
same,time after administration at which G-AUC returns to the base before administration,db/db mice; 0.015 mg/kg dosage group,27 h
same,time after administration at which fasting blood glucose returns to the basal blood glucose base,db/db mice; 0.015 mg/kg dosage group,51 h
same,time after administration at which random blood glucose returns to the base before administration,db/db mice; 0.015 mg/kg dosage group,67 h
same,Average changes of fasting blood glucose after administration,"db/db mice; 0.015 mg/kg s.c., 3 h",-3.5 mM
same,Average changes of random blood glucose after administration,"db/db mice; 0.015 mg/kg s.c., 6 h",-15.7 mM
same,Average changes of random blood glucose after administration,"db/db mice; 0.015 mg/kg s.c., 19 h",-13.5 mM
same,Average changes of fasting blood glucose after administration,"db/db mice; 0.015 mg/kg s.c., 27 h",-2.7 mM
same,Average changes of random blood glucose after administration,"db/db mice; 0.015 mg/kg s.c., 43 h",-10.1 mM
same,Average changes of fasting blood glucose after administration,"db/db mice; 0.015 mg/kg s.c., 51 h",-2.4 mM
same,Average changes of random blood glucose after administration,"db/db mice; 0.015 mg/kg s.c., 67 h",-3.1 mM
same,Average changes of fasting blood glucose after administration,"db/db mice; 0.015 mg/kg s.c., 75 h",2.5 mM
same,Average changes of random blood glucose after administration,"db/db mice; 0.015 mg/kg s.c., 91 h",-0.1 mM
same,Average changes of fasting blood glucose after administration,"db/db mice; 0.015 mg/kg s.c., 99 h",3.9 mM
same,Average changes of random blood glucose after administration,"db/db mice; 0.015 mg/kg s.c., 115 h",4.9 mM
same,Average changes of fasting blood glucose after administration,"db/db mice; 0.015 mg/kg s.c., 123 h",3.7 mM
same,Average changes of random blood glucose after administration,"db/db mice; 0.015 mg/kg s.c., 139 h",5.9 mM
same,Average changes of fasting blood glucose after administration,"db/db mice; 0.015 mg/kg s.c., 147 h",9.8 mM
same,time after administration at which G-AUC returns to the base before administration,db/db mice; 0.15 mg/kg dosage group,51 h
same,time after administration at which fasting blood glucose returns to the basal blood glucose base,db/db mice; 0.15 mg/kg dosage group,75 h
same,time after administration at which random blood glucose returns to the base before administration,db/db mice; 0.15 mg/kg dosage group,67 h
same,Average changes of fasting blood glucose after administration,"db/db mice; 0.15 mg/kg s.c., 3 h",-4.1 mM
same,Average changes of random blood glucose after administration,"db/db mice; 0.15 mg/kg s.c., 6 h",-15.7 mM
same,Average changes of random blood glucose after administration,"db/db mice; 0.15 mg/kg s.c., 19 h",-14.8 mM
same,Average changes of fasting blood glucose after administration,"db/db mice; 0.15 mg/kg s.c., 27 h",-3.0 mM
same,Average changes of random blood glucose after administration,"db/db mice; 0.15 mg/kg s.c., 43 h",-14.1 mM
same,Average changes of fasting blood glucose after administration,"db/db mice; 0.15 mg/kg s.c., 51 h",-3.2 mM
same,Average changes of random blood glucose after administration,"db/db mice; 0.15 mg/kg s.c., 67 h",-7.1 mM
same,Average changes of fasting blood glucose after administration,"db/db mice; 0.15 mg/kg s.c., 75 h",-0.7 mM
same,Average changes of random blood glucose after administration,"db/db mice; 0.15 mg/kg s.c., 91 h",1.7 mM
same,Average changes of fasting blood glucose after administration,"db/db mice; 0.15 mg/kg s.c., 99 h",1.4 mM
same,Average changes of random blood glucose after administration,"db/db mice; 0.15 mg/kg s.c., 115 h",4.5 mM
same,Average changes of fasting blood glucose after administration,"db/db mice; 0.15 mg/kg s.c., 123 h",4.4 mM
same,Average changes of random blood glucose after administration,"db/db mice; 0.15 mg/kg s.c., 139 h",7.8 mM
same,Average changes of fasting blood glucose after administration,"db/db mice; 0.15 mg/kg s.c., 147 h",6.7 mM
same,Average changes of the blood glucose area under the curve after administration,"db/db mice; 0.015 mg/kg s.c., 3 h",-9.0 mmol/L/h
same,Average changes of the blood glucose area under the curve after administration,"db/db mice; 0.015 mg/kg s.c., 27 h",-5.2 mmol/L/h
same,Average changes of the blood glucose area under the curve after administration,"db/db mice; 0.015 mg/kg s.c., 51 h",1.1 mmol/L/h
same,Average changes of the blood glucose area under the curve after administration,"db/db mice; 0.015 mg/kg s.c., 75 h",8.2 mmol/L/h
same,Average changes of the blood glucose area under the curve after administration,"db/db mice; 0.015 mg/kg s.c., 99 h",7.9 mmol/L/h
same,Average changes of the blood glucose area under the curve after administration,"db/db mice; 0.015 mg/kg s.c., 123 h",13.0 mmol/L/h
same,Average changes of the blood glucose area under the curve after administration,"db/db mice; 0.015 mg/kg s.c., 147 h",21.9 mmol/L/h
same,Average changes of the blood glucose area under the curve after administration,"db/db mice; 0.15 mg/kg s.c., 3 h",-10.3 mmol/L/h
same,Average changes of the blood glucose area under the curve after administration,"db/db mice; 0.15 mg/kg s.c., 27 h",-10.2 mmol/L/h
same,Average changes of the blood glucose area under the curve after administration,"db/db mice; 0.15 mg/kg s.c., 51 h",-7.1 mmol/L/h
same,Average changes of the blood glucose area under the curve after administration,"db/db mice; 0.15 mg/kg s.c., 75 h",1.5 mmol/L/h
same,Average changes of the blood glucose area under the curve after administration,"db/db mice; 0.15 mg/kg s.c., 99 h",3.9 mmol/L/h
same,Average changes of the blood glucose area under the curve after administration,"db/db mice; 0.15 mg/kg s.c., 123 h",9.9 mmol/L/h
same,Average changes of the blood glucose area under the curve after administration,"db/db mice; 0.15 mg/kg s.c., 147 h",16.0 mmol/L/h
